Patent USRE47954E1, “Combination therapy with peptide epoxyketones” (priority 2008, dated 2020)
Read-outs that look alike come from different tables or passages of the source.

Columns and labels:
[1] = Description: Toxicity Studies: 4-6 weeks old female BNX mice were treated with chemotherapeutic agents of multiple classes as monotherapy or in combination with carfilzomib. Two weeks toxicity studies were performed at doses and dose schedules as mentioned in the figure legend. Toxicity was measured as body weight loss three times a week.
The dose schedule as shown in FIG. 2A was Doxil day 1 (iv), after one hour Compound 1 day 1, 2 (iv).
The dose schedule as shown in FIG. 5A was docetaxel day 1 (iv), after one hour Compound 1 day 1, 2 (iv).

[2] = test system: A549 non-small cell lung cancer xenograft; assay: A549 non-small cell lung cancer xenograft model (FIG. 4, 6, 7); format: in vivo, BNX mice
Description: (§3) Xenograft studies: Tumors were established by subcutaneous (s.c.) injection of cell lines (passage number <9 and viability >95% at the time of implantation) in the right flank of BNX mice (n=8/9 per group). RL (0.1 mL) cell suspensions containing 1×10^7 cells. 5×10^6 cell suspension (0.1 mL) were injected in case of HT-29, ES2 and A549 cells. Mice were randomized into treatment groups and dosing initiated when tumors size was approximately 100 mm^3. In all treatment groups, tumors were measured three times weekly by recording the longest perpendicular diameters and tumor volumes were calculated using the equation V (mm^3)=(length×width^2)/2.
(§4) Statistical analysis: For comparisons of treatment groups, a two-way ANOVA followed by Bonferroni post hoc analysis using GraphPad Prism Software (version 4.01) was performed. Statistical significance was achieved when p<0.05.

[3] = test system: HT29 colorectal xenograft; assay: HT29 colorectal xenograft model (FIG. 3)
Description: as §3, §4

RL human lymphoma cells = assay: RL human lymphoma xenograft, Example 1 (FIG. 1); format: in vivo, Immunocompromised mice (BNX); conditions: Compound 1 IV Days 1 and 2 each week + SAHA IP Days 1-5 each week; two-way ANOVA, Bonferroni
Description: Immunocompromised mice (BNX, Charles River Laboratories) were challenged with subcutaneous administration of RL human lymphoma cells (1×10^7/mouse) on the right flank in a total volume of 0.1 mL phosphate buffered saline (PBS). When tumors were approximately 50 mm^3 in size (as indicated by the arrow in FIG. 1), mice were randomized to treatment groups (9 mice/group). Compound 1 was administered intravenously (IV) in a solution of 10% (w/v) sulfobutylether-betacyclodextrin in aqueous 10 mM citrate buffer pH 3.5. Administration was given on Days 1 and 2 each week. SAHA was formulated in 100% DMSO and administered intraperiotoneally (IP) on Days 1-5 each week. ***=P<0.001 (Compound 1+SAHA vs. Vehicle) by two-way ANOVA and Bonferroni post-hoc comparisons.

RL tumors = assay: RL lymphoma xenograft, Example 2 (FIG. 9); format: in vivo, BNX mice
Description: (§1) Statistical significance was achieved when p<0.05.
(§2) The effect of the combination of Compound 1 (3 mg/kg) and vorinostat (50 mg/kg) (n=8/group) on established RL tumors is shown in FIG. 9 (arrow indicates start of dosing period). The effect of the combination of Compound 1 (3 mg/kg) and vorinostat (50 mg/kg) (n=8/group) on established ES2 tumors. **, P<0.01; and ***, P<0.001 vs monotherapy and vehicle is shown in FIG. 10 (arrow indicates start of dosing period).

[4] = test system: MM1.S (multiply myeloma, dexamethasone sensitive) cells; assay: Cell titer glo viability, combination index with melphalan (FIG. 11); format: cell-based; conditions: Compound 1 6.58 nM + melphalan 11.1, 7.4, 4.9 and 3.3 μM; melphalan pretreatment 24 hours, then Compound 1 24 hours
Description: Compound 1 was tested at 6.58 nM in combination with melphalan at four different doses: 11.1, 7.4, 4.9 and 3.3 μM. MM1.S (multiply myeloma, dexamethasone sensitive) cells were plated at 200,000 cells/mL in 45 μL then pretreated with melphalan for 24 hours. Compound 1 was then added and the cells were incubated for an additional 24 hours at 6.58 nM. A 1:1 ratio of Cell titer glo solution was then added to the cell samples and read for viability. Combination index values were calculated using the Calcusyn program where values <0.9=synergy, 0.9-1.0=additive and >1.1=antagonistic.

[5] = test system: relapsed multiple myeloma patients; assay: Phase Ib dose escalation study of carfilzomib plus lenalidomide and low-dose dexamethasone; format: in vivo; conditions: preliminary
Source text: Within the first three cohorts, seventeen patients were evaluable for response and toxicity.

ES2 tumors = assay: ES2 ovarian xenograft (FIG. 10); format: in vivo, BNX mice; conditions: in combination with vorinostat (50 mg/kg), ovarian cancer model
Description: as §1, §2

[6] = combination Compound 1 (5 mg/kg) + Doxil (3 mg/kg)
[7] = combination Compound 1 at MTD (5 mg/kg) + docetaxel (5 mg/kg), FIG. 6
[8] = combination Compound 1 at sub-MTD (3 mg/kg) + sub-MTD docetaxel (5 mg/kg), FIG. 7
[9] = combination of Compound 1 and vorinostat

Work on `CC(=O)O[C@@]12CO[C@@H]1C[C@H](O)[C@@]1(C)C(=O)[C@H](O)C3=C(C)[C@@H](OC(=O)[C@H](O)[C@@H](NC(=O)OC(C)(C)C)c4ccccc4)C[C@@](O)([C@@H](OC(=O)c4ccccc4)[C@H]21)C3(C)C` [docetaxel, reference compound] yielded an MTD ([1]; docetaxel in combination with carfilzomib, docetaxel day 1 (iv), Compound 1 day 1, 2 (iv)) of 10 mg/kg.
With `CC(C)C[C@H](NC(=O)[C@H](CCc1ccccc1)NC(=O)CN1CCOCC1)C(=O)N[C@@H](Cc1ccccc1)C(=O)N[C@@H](CC(C)C)C(=O)[C@@]1(C)CO1` [Compound 1, carfilzomib] the “tumor size, p vs. control or Doxil alone” value [2, 6] was under 0.001, the “tumor size, significance vs. carfilzomib alone” value [2, 6] was “No significance” and the “tumor size, p vs. carfilzomib alone” value [2, 7] was under 0.05. The “tumor size, p vs. control” value [2, 7] was under 0.001, the “tumor size, p vs. carfilzomib and docetaxel” value [2, 8] was under 0.01 and the “tumor size, p vs. control” value [2, 8] was under 0.001. The A549 tumor growth ([2]; combination with docetaxel, compared to vehicle controls or either single agent) was “significant reduction”, the “anti-tumor effect of combination” value ([2]; in combination with docetaxel at sub-MTD doses, human lung cancer model) was “synergistic anti-tumor effect” and the “anti-tumor effect of combination” value ([3]; Compound 1 and Doxil at sub-MTD doses, solid tumor model) was “synergistic anti-tumor effect”. The tumor burden ([3]; Compound 1 and Doxil combination, HT-29 xenograft model) was “significantly reduced tumor burden”, the anti-tumor activity ([3]; Compound 1 at MTD (5 mg/kg) and sub-MTD of Doxil (3 mg/kg)) was “increased anti-tumor activity” and the “tumor size, p vs. Doxil alone” value [3, 6] was under 0.01. The “tumor size, p vs. control or carfilzomib alone” value [3, 6] was under 0.001, the “tumor volume, P (Compound 1+SAHA vs. Vehicle)” value (RL human lymphoma cells) was under 0.001 and the “RL tumor growth, p vs. Compound 1 or vorinostat alone” value (RL tumors; [9]) was under 0.01. For the same compound, the “RL tumor growth, p vs. control” value (RL tumors; [9]) was under 0.001, the “lymphoma (RL) tumor growth” value (RL tumors; combination with vorinostat, compared to vehicle controls or either single agent, Compound 1 3 mg/kg, vorinostat 50 mg/kg) was “significant reduction” and the “anti-tumor effect of combination” value (RL tumors; in combination with vorinostat, lymphoma model) was “synergistic anti-tumor effect”. For the same compound, the “combination effect (combination index, Calcusyn)” value [4] was “synergistic and additive effects”, the MTD ([1]; carfilzomib QDx2 (iv)) was 5 mg/kg and the “maximum tolerated dose (MTD)” value ([5]; first three cohorts) was “not yet reached”. The Responses [5] was “durable” and the “anti-tumor property of combination” value (ES2 tumors) was “effective anti-tumor property”.
